Data published in patent publication US6355799B1, “Substituted benzene compounds, process for their preparation, and herbicidal and defoliant compositions containing them” (ISK Americas Incorporated, priority 1997, dated 2002).

Legend:
Assay type in all cases: in vivo
[1] = test system: green foxtail (Setaria viridis, SETVI); assay: Post-emerge test, greenhouse herbicide activity screening; details: post-emerge, 14 days after application, rating scale 0-100
Source text: (§1) A standard greenhouse herbicide activity screening system was used to evaluate the herbicidal efficacy and crop safety of these test compounds. Seven broadleaf weed species including redroot pigweed (Amaranthus retroflexus, AMARE, velvetleaf (Abutilon theophrasti, ABUTH), sicklepod (Cassia obtusifolia, CASOB), ivyleaf morningglory (Ipomoea hederacea, IPOHE), lambsquarters (Chenopodium album, CHEAL), common ragweed (Ambrosia artemisizfolia L., AMBEL), and cocklebur (Xanthium strumarium, XANST) were used as test species. Four grass weed species including green foxtail (Setaria viridis, SETVI), barnyardgrass (Echinochloa crus-galli, ECHCG), johnsongrass (Sorghum halepense, SORHA), and large crabgrass (Digitaria sanguinalis, DIGSA) were also used. In addition, three crop species, field corn (Zea mays L., var. Dekalb 535, CORN), soybean (Glycine max L., var. Pella 86, SOY), and is upland rice (Oryza sp., var. Tebonnet, RICE) were included.
(§2) All plants were grown in 10 cm square plastic pots which were filled with a sandy loam soil mix. For pre-emerge tests, seeds were planted one day prior to application of the test compounds. For post-emerge tests, seeds were planted 8-21 days prior to the test to allow emergence and good foliage development prior to application of the test substances. At the time of the post-emerge application, plants of all species were usually at the 2-3 leaf stage of development.
(§3) All test compounds Were dissolved in acetone and applied to the test units in a volume of 187 l /ha. Test materials were applied at rates ranging from 15 g ai/ha to 1000 g ai/ha using a track sprayer equipped with a TJ8001E even flow flat fan spray nozzle. Plants were arranged on a shelf so that the top of the canopy (post-emerge) or top of the soil surface (pre-emerge) was 40-45 cm below the nozzle. Pressurized air was used to force the test solution through the nozzle as it was mechanically advanced (via electrically driven chain drive) over the top of all test plants/pots. This application simulates a typical commercial field herbicide application.
(§4) In the post-emerge test, a commercial non-ionic surfactant was also included (0.25% v/v) to enhance wetting of the leaf surfaces of target plants. Immediately after application, test units of the pre-emerge applications were watered at the soil surface to incorporate the test materials. Subsequently, these test units were bottom-watered. Post-emerge test units were always bottom-watered.
(§5) At 14 days after application of the test materials, phytotoxicity ratings were recorded. A rating scale of 0-100 was used as previously described in Research Methods in Weed Science, 2nd edition, B. Truelove, Ed., Southern Weed Science Society, Auburn University, Auburn, Ala. 1977. Briefly, “0” corresponds to no damage and “100” corresponds to complete death of all plants in the test unit. This scale was used both to determine efficacy against weed species and damage to crop species. Herbicide activity data for various compounds of this invention, which are shown by compound No. in Tables 1-8, are shown in Tables 11 and 12.

[2] = test system: barnyardgrass (Echinochloa crus-galli, ECHCG); assay: as above; details: post-emerge, 14 days after application, rating scale 0-100
Source text: as §1, §2, §3, §4, §5

[3] = test system: sicklepod (Cassia obtusifolia, CASOB); assay: as above; details: post-emerge, 14 days after application, rating scale 0-100
Source text: as §1, §2, §3, §4, §5

[4] = test system: velvetleaf (Abutilon theophrasti, ABUTH); assay: as above; details: post-emerge, 14 days after application, rating scale 0-100
Source text: as §1, §2, §3, §4, §5

[5] = test system: large crabgrass (Digitaria sanguinalis, DIGSA); assay: as above; details: post-emerge, 14 days after application, rating scale 0-100
Source text: as §1, §2, §3, §4, §5

[6] = test system: redroot pigweed (Amaranthus retroflexus, AMARE); assay: as above; details: post-emerge, 14 days after application
Source text: as §1, §2, §3, §4, §5

[7] = test system: lambsquarters (Chenopodium album, CHEAL); assay: as above; details: post-emerge, 14 days after application, rating scale 0-100
Source text: as §1, §2, §3, §4, §5

[8] = test system: ivyleaf morningglory (Ipomoea hederacea, IPOHE); assay: as above; details: post-emerge, 14 days after application, rating scale 0-100
Source text: as §1, §2, §3, §4, §5

[9] = test system: field corn (Zea mays L., var. Dekalb 535, CORN); assay: Pre-emerge test, crop safety; details: pre-emerge, 14 days after application; for phytotoxicity rating CORN (crop damage): scale 0-100; for phytotoxicity rating CORN: rating scale 0-100
Source text: as §1, §2, §3, §4, §5

[10] = test system: upland rice (Oryza sp., var. Tebonnet, RICE); assay: Pre-emerge test, crop safety; details: pre-emerge, 14 days after application; for phytotoxicity rating RICE (crop damage): scale 0-100; for phytotoxicity rating RICE: rating scale 0-100
Source text: as §1, §2, §3, §4, §5

[11] = test system: redroot pigweed (Amaranthus retroflexus, AMARE); assay: Pre-emerge test, greenhouse herbicide activity screening; details: pre-emerge, 14 days after application
Source text: as §1, §2
as §3, with “Test materials were applied at rates ranging from 15 g ai/ha to 1000 g ai/ha using a track sprayer equipped with a TJ8001E even flow flat fan spray nozzle.” left out
as §4, §5

[12] = test system: green foxtail (Setaria viridis, SETVI); assay: as above; details: pre-emerge, 14 days after application
Source text: as §1, §2, §3, §4, §5

[13] = test system: barnyardgrass (Echinochloa crus-galli, ECHCG); assay: as above; details: pre-emerge, 14 days after application
Source text: as §1, §2, §3, §4, §5

[14] = test system: sicklepod (Cassia obtusifolia, CASOB); assay: as above; details: pre-emerge, 14 days after application
Source text: as §1, §2, §3, §4, §5

[15] = test system: velvetleaf (Abutilon theophrasti, ABUTH); assay: as above; details: pre-emerge, 14 days after application
Source text: as §1, §2, §3, §4, §5

[16] = test system: large crabgrass (Digitaria sanguinalis, DIGSA); assay: as above; details: pre-emerge, 14 days after application
Source text: as §1, §2, §3, §4, §5

[17] = test system: lambsquarters (Chenopodium album, CHEAL); assay: as above; details: pre-emerge, 14 days after application
Source text: as §1, §2, §3, §4, §5

[18] = test system: ivyleaf morningglory (Ipomoea hederacea, IPOHE); assay: as above; details: pre-emerge, 14 days after application
Source text: as §1, §2, §3, §4, §5

[19] = test system: field corn (Zea mays L., var. Dekalb 535, CORN); assay: Post-emerge test, crop safety; details: post-emerge, 14 days after application, rating scale 0-100
Source text: as §1, §2, §3, §4, §5

[20] = test system: upland rice (Oryza sp., var. Tebonnet, RICE); assay: Post-emerge test, crop safety; details: post-emerge, 14 days after application, rating scale 0-100
Source text: as §1, §2, §3, §4, §5

[21] = 250 g ai/ha, rating scale 0-100

`COc1c(Cl)cc(F)c(-n2c(=O)cc(C(F)(F)F)n(C)c2=O)c1NC(=O)CCc1ccccc1C` [2-129] showed an SETVI phytotoxicity rating ([1]; 63 g ai/ha) of 80, an SETVI phytotoxicity rating ([1]; 250 g ai/ha) of 90 and an ECHCG phytotoxicity rating ([2]; 63 g ai/ha) of 30. For the same compound, the ECHCG phytotoxicity rating ([2]; 250 g ai/ha) was 50, the CASOB phytotoxicity rating ([3]; 63 g ai/ha) was 80 and the CASOB phytotoxicity rating ([3]; 250 g ai/ha) was 100. The ABUTH phytotoxicity rating ([4]; 63 g ai/ha) was 100, the ABUTH phytotoxicity rating ([4]; 250 g ai/ha) was 100 and the DIGSA phytotoxicity rating ([5]; 63 g ai/ha) was 30. It also gave a DIGSA phytotoxicity rating ([5]; 250 g ai/ha) of 70, an AMARE phytotoxicity rating ([6]; 63 g ai/ha, rating scale 0-100) of 100 and an AMARE phytotoxicity rating [6, 21] of 100. The CHEAL phytotoxicity rating ([7]; 63 g ai/ha) was 100, the CHEAL phytotoxicity rating ([7]; 250 g ai/ha) was 100 and the IPOHE phytotoxicity rating ([8]; 63 g ai/ha) was 100. The IPOHE phytotoxicity rating ([8]; 250 g ai/ha) was 100, the “phytotoxicity rating CORN (crop damage)” value ([9]; 63 g ai/ha) was 50 and the “phytotoxicity rating CORN (crop damage)” value ([9]; 250 g ai/ha) was 90. For the same compound, the “phytotoxicity rating RICE (crop damage)” value ([10]; 63 g ai/ha) was 40, the “phytotoxicity rating RICE (crop damage)” value ([10]; 250 g ai/ha) was 80 and the “phytotoxicity rating AMARE” value ([11]; 63 g ai/ha, scale 0-100) was 90. The “phytotoxicity rating AMARE” value ([11]; 250 g ai/ha, scale 0-100) was 100, the “phytotoxicity rating SETVI” value ([12]; 63 g ai/ha, scale 0-100) was 90 and the “phytotoxicity rating SETVI” value ([12]; 250 g ai/ha, scale 0-100) was 100. For the same compound, the “phytotoxicity rating ECHCG” value ([13]; 63 g ai/ha, scale 0-100) was 30, the “phytotoxicity rating ECHCG” value ([13]; 250 g ai/ha, scale 0-100) was 80 and the “phytotoxicity rating CASOB” value ([14]; 63 g ai/ha, scale 0-100) was 60. For the same compound, the “phytotoxicity rating CASOB” value ([14]; 250 g ai/ha, scale 0-100) was 90, the “phytotoxicity rating ABUTH” value ([15]; 63 g ai/ha, scale 0-100) was 100 and the “phytotoxicity rating ABUTH” value ([15]; 250 g ai/ha, scale 0-100) was 100. The “phytotoxicity rating DIGSA” value ([16]; 63 g ai/ha, scale 0-100) was 60, the “phytotoxicity rating DIGSA” value ([16]; 250 g ai/ha, scale 0-100) was 100 and the “phytotoxicity rating CHEAL” value ([17]; 63 g ai/ha, scale 0-100) was 100. The “phytotoxicity rating CHEAL” value ([17]; 250 g ai/ha, scale 0-100) was 100, the “phytotoxicity rating IPOHE” value ([18]; 63 g ai/ha, scale 0-100) was 50 and the “phytotoxicity rating IPOHE” value ([18]; 250 g ai/ha, scale 0-100) was 70. For the same compound, the “CORN phytotoxicity rating (crop damage)” value ([19]; 63 g ai/ha) was 70, the “CORN phytotoxicity rating (crop damage)” value ([19]; 250 g ai/ha) was 100 and the “RICE phytotoxicity rating (crop damage)” value ([20]; 63 g ai/ha) was 35. For the same compound, the “RICE phytotoxicity rating (crop damage)” value ([20]; 250 g ai/ha) was 75.

In the case of `COc1c(Cl)cc(F)c(-n2c(=O)cc(C(F)(F)F)n(C)c2=O)c1NNC(=O)Nc1ccc(F)cc1F` [15-8], the “Post-emerge Herbicidal Activity SETVI (phytotoxicity rating)” value ([1]; 63 g ai/ha) is reported as 0, the “Post-emerge Herbicidal Activity SETVI (phytotoxicity rating)” value ([1]; 250 g ai/ha) is reported as 30 and the “Post-emerge Herbicidal Activity ECHCG (phytotoxicity rating)” value ([2]; 63 g ai/ha) is reported as 0. The “Post-emerge Herbicidal Activity ECHCG (phytotoxicity rating)” value ([2]; 250 g ai/ha) was 20, the “Post-emerge Herbicidal Activity CASOB (phytotoxicity rating)” value ([3]; 63 g ai/ha) was 0 and the “Post-emerge Herbicidal Activity CASOB (phytotoxicity rating)” value ([3]; 250 g ai/ha) was 40. The “Post-emerge Herbicidal Activity ABUTH (phytotoxicity rating)” value ([4]; 63 g ai/ha) was 70, the “Post-emerge Herbicidal Activity ABUTH (phytotoxicity rating)” value ([4]; 250 g ai/ha) was 100 and the “Post-emerge Herbicidal Activity DIGSA (phytotoxicity rating)” value ([5]; 63 g ai/ha) was 0. The “Post-emerge Herbicidal Activity DIGSA (phytotoxicity rating)” value ([5]; 250 g ai/ha) was 0, the “Post-emerge Herbicidal Activity AMARE (phytotoxicity rating)” value ([6]; 63 g ai/ha, rating scale 0-100 (0 no damage, 100 complete death)) was 20 and the “Post-emerge Herbicidal Activity AMARE (phytotoxicity rating)” value [6, 21] was 60. For the same compound, the “Post-emerge Herbicidal Activity CHEAL (phytotoxicity rating)” value ([7]; 63 g ai/ha) was 95, the “Post-emerge Herbicidal Activity CHEAL (phytotoxicity rating)” value ([7]; 250 g ai/ha) was 90 and the “Post-emerge Herbicidal Activity IPOHE (phytotoxicity rating)” value ([8]; 63 g ai/ha) was 50. For the same compound, the “Post-emerge Herbicidal Activity IPOHE (phytotoxicity rating)” value ([8]; 250 g ai/ha) was 90, the “phytotoxicity rating CORN” value ([9]; 63 g ai/ha) was 0 and the “phytotoxicity rating CORN” value ([9]; 250 g ai/ha) was 90. For the same compound, the “phytotoxicity rating RICE” value ([10]; 63 g ai/ha) was 15, the “phytotoxicity rating RICE” value ([10]; 250 g ai/ha) was 90 and the “phytotoxicity rating AMARE” value ([11]; 63 g ai/ha, rating scale 0-100) was 60. For the same compound, the “phytotoxicity rating AMARE” value [11, 21] was 100, the “phytotoxicity rating SETVI” value ([12]; 63 g ai/ha, rating scale 0-100) was 20 and the “phytotoxicity rating SETVI” value [12, 21] was 0. The “phytotoxicity rating ECHCG” value ([13]; 63 g ai/ha, rating scale 0-100) was 0, the “phytotoxicity rating ECHCG” value [13, 21] was 40 and the “phytotoxicity rating CASOB” value ([14]; 63 g ai/ha, rating scale 0-100) was 20. For the same compound, the “phytotoxicity rating CASOB” value [14, 21] was 80, the “phytotoxicity rating ABUTH” value ([15]; 63 g ai/ha, rating scale 0-100) was 40 and the “phytotoxicity rating ABUTH” value [15, 21] was 100. The “phytotoxicity rating DIGSA” value ([16]; 63 g ai/ha, rating scale 0-100) was 30, the “phytotoxicity rating DIGSA” value [16, 21] was 100 and the “phytotoxicity rating CHEAL” value ([17]; 63 g ai/ha, rating scale 0-100) was 60. For the same compound, the “phytotoxicity rating CHEAL” value [17, 21] was 100, the “phytotoxicity rating IPOHE” value ([18]; 63 g ai/ha, rating scale 0-100) was 0 and the “phytotoxicity rating IPOHE” value [18, 21] was 70. The “Post-emerge Herbicidal Activity CORN (crop damage rating)” value ([19]; 63 g ai/ha) was 0, the “Post-emerge Herbicidal Activity CORN (crop damage rating)” value ([19]; 250 g ai/ha) was 55 and the “Post-emerge Herbicidal Activity RICE (crop damage rating)” value ([20]; 63 g ai/ha) was 10. For the same compound, the “Post-emerge Herbicidal Activity RICE (crop damage rating)” value ([20]; 250 g ai/ha) was 60.
